Converted amounts (≈) assume the structure as drawn.

This assay has as its system HeLa. The assay can be described thus: Cytotoxicity against human HeLa cells by Fukuzawa's method. Type of assay: functional, cell-based.

For orientation: IC50 means the concentration that inhibits the measured activity by half. Low values mean inhibition by little substance, high ones a need for much substance. Regarding `O=C(O)C(=O)c1c(-c2c[nH]c3cc(O)ccc23)ncc2[nH]c3ccc(O)cc3c12` [HYRTIOERECTINE A], the midpoint of inhibition, the IC50, lay at 10 µg/mL (≈ 25.8 µM).

`O=C(O)[C@H](O)Cc1c[nH]c2ccc(O)cc12` [HYRTIOERECTINE C] yielded an IC50 of 4.5 µg/mL (≈ 20.3 µM). As to `C[C@H]1N[C@@H](C(=O)O)Cc2c1[nH]c1ccc(O)cc21` [HYRTIOERECTINE B], the IC50 was found to be 5 µg/mL (≈ 20.3 µM).

These data come from ChEMBL document CHEMBL1158817, “Hyrtioerectines A-C, cytotoxic alkaloids from the red sea sponge hyrtioserectus” (J Nat Prod, 2005).
